Publication PMC2632993, “Conformational changes in α7 acetylcholine receptors underlying allosteric modulation by divalent cations” (BMC Pharmacology, 2009)
Entries after “also recorded” stand apart in the source; their conditions may differ.

Tests used:
Type in all cases: cell-based, chick
[1] = target: α7 AChR E^172C mutant (C^115A/L^247T background) (Gallus gallus, UniProt P22770, C138A/E195C/L270T); test: ACh dose-response, two-electrode voltage clamp in Xenopus oocytes
Excerpt: (§1) A cDNA clone of the chick α7 receptor containing two mutations (C^115A, L^247T) was used as the parental phenotype for mutations described in this study. We mutated the lone unpaired cysteine in the extracellular domain (C^115) to alanine to allow for a more straightforward interpretation of thiol modification experiments. […] We included the mutation of leucine 247 in the M2 transmembrane domain (L^247T; L9'T) because of its large current amplitudes and non-desensitizing kinetics compared to wild-type α7 receptors. […] All mutations were introduced by site-directed mutagenesis using the QuikChange method (Agilent Technologies, La Jolla, CA) as described previously, and were confirmed by DNA sequencing.
(§2) cRNA was prepared using the T7 RNA polymerase and mMessage mMachine kit as described by the manufacturer (Applied Biosystems, Austin, TX). Oocytes were surgically removed and prepared from female Xenopus laevis in accordance with UNC Institutional Animal Care and Use Committee guidelines. Oocytes were injected with 20 ng of cRNA and incubated at 18°C in ND96 (96 mM NaCl, 2 mM KCl, 1 mM MgCl2, 1.8 mM CaCl2, 5 mM Na pyruvate, 50 μg/ml gentamicin, 5 mM HEPES, pH 7.5) for 2–5 days before use. For some mutants we co-injected cRNA encoding the human RIC-3 [38], a protein shown to enhance expression of α7 AChRs in both mammalian cells and oocytes.
(§3) Oocytes were superfused in normal extracellular solution containing a reduced Ca^2+ concentration (ESLC; 96 mM NaCl, 2 mM KCl, 1 mM MgCl2, 0.1 mM CaCl2, and 10 mM HEPES, pH 7.5). […] Two-electrode voltage clamp was performed with a GeneClamp 500B controlled by pCLAMP8 software (Molecular Devices, Sunnyvale, CA). Electrodes were filled with 3 M KCl contacting Ag-AgCl wires and had resistances of 0.5 to 2.0 MΩ. Currents were recorded at a constant holding potential of -60 mV. Currents were low pass filtered at 50 Hz and sampled at 100 Hz. Agonist dose-response curves were obtained as described previously, and data were fit to the Hill equation using Origin software (Microcal Software, Northampton, MA).
(§4) MTSEA was prepared daily in distilled water and stored on ice. Stock solution was diluted to the appropriate working concentration in ESLC immediately before each application. […] To measure the effect of Ba^2+ on modification rates we pre-applied 10 mM Ba^2+ for 30 seconds prior to co-application of 10 mM Ba^2+ plus MTSEA. […] Kinetic data were analyzed as described previously; rate data were fit to a single exponential to extract a pseudo-first order rate constant; this was divided by the MTSEA concentration used to determine the second order rate constant for thiol modification.

[2] = target: α7 AChR E^44C mutant (C^115A/L^247T background) (Gallus gallus, UniProt P22770, C138A/E67C/L270T); test: as above
Excerpt: as §1, §2, §3, §4

[3] = target: α7 AChR M^37C mutant (C^115A/L^247T background) (Gallus gallus, UniProt P22770, C138A/L270T/M60C); test: as above; conditions: fraction of maximal ACh-evoked current evoked by 10 mM Ba^2+ in the absence of ACh
Excerpt: as §1, §2, §3, §4

[4] = target: α7 AChR M^40C/E^172Q mutant (C^115A/L^247T background) (Gallus gallus, UniProt P22770, C138A/E195Q/L270T/M63C); test: as above
Excerpt: as §1, §2, §3, §4

[5] = target: α7 AChR N^170C mutant (C^115A/L^247T background) (Gallus gallus, UniProt P22770, C138A/L270T/N193C); test: as above; conditions: co-expression with human RIC-3, fraction of maximal ACh-evoked current evoked by 10 mM Ba^2+ in the absence of ACh
Excerpt: as §1, §2, §3, §4

[6] = target: α7 AChR N^52C mutant (C^115A/L^247T background) (Gallus gallus, UniProt P22770, C138A/L270T/N75C); test: as above
Excerpt: as §1, §2, §3, §4

[7] = target: α7 C^115A/L^247T receptor (Gallus gallus, UniProt P22770, C138A/L270T); test: as above
Excerpt: as §1, §2, §3, §4

[8] = target: T1, α7 AChR M^40C mutant (C^115A/L^247T background) (Gallus gallus, UniProt P22770, C138A/L270T/M63C); conditions: fraction of maximal ACh-evoked current evoked by 10 mM Ba^2+ in the absence of ACh
T1 construct: expressed in transfected cells; host or cells: Xenopus laevis oocytes injected with cRNA
Excerpt: as §1, with “sequencing. […]” for “sequencing.”
Oocytes were superfused in normal extracellular solution containing a reduced Ca^2+ concentration (ESLC; 96 mM NaCl, 2 mM KCl, 1 mM MgCl2, 0.1 mM CaCl2, and 10 mM HEPES, pH 7.5). […] Currents were recorded at a constant holding potential of -60 mV. […]
MTSEA was prepared daily in distilled water and stored on ice. […] Kinetic data were analyzed as described previously; rate data were fit to a single exponential to extract a pseudo-first order rate constant; this was divided by the MTSEA concentration used to determine the second order rate constant for thiol modification.

[9] = co-expression with human RIC-3, fraction of maximal ACh-evoked current evoked by 10 mM Ba^2+ in the absence of ACh
[10] = fraction of maximal ACh-evoked current evoked by 10 mM Ba^2+ in the absence of ACh

## [Ba+2].[Cl-].[Cl-] [Ba^2+, BaCl2]
[1]; 10 mM Ba^2+
  positive allosteric modulation of ACh currents by Ba^2+: no positive allosteric modulation
[1]; [9]
  Ba^2+ efficacy: 0.02
[2]; 10 mM Ba^2+
  positive allosteric modulation of ACh currents by Ba^2+: eliminated; also recorded: no positive allosteric modulation
[2]; [10]
  Ba^2+ efficacy: 0.01
[3]
  Ba^2+ efficacy: 0.2
[4]; 10 mM Ba^2+
  positive allosteric modulation of ACh currents by Ba^2+: not positively modulated
[4]; [9]
  Ba^2+ efficacy: 0.02
[5]
  Ba^2+ efficacy: 0.03
[6]; 10 mM Ba^2+
  agonism by Ba^2+ in the absence of ACh: high partial agonism
[6]; [10]
  Ba^2+ efficacy: 0.6
[7]; 10 mM Ba^2+
  decrease in ACh EC50 (leftward shift in the dose-response curve) caused by Ba^2+: ~ 10 fold
[7]; [10]
  Ba^2+ efficacy: 0.1
[8]
  Ba^2+ efficacy: 0.1
